The results in this text go back to ChEMBL document CHEMBL1123561, “Aryl diazo compounds and diazonium salts as potential irreversible probes of the gamma-aminobutyric acid receptor” (J Med Chem, 1987).

Series [1] has as its target T1, GABA-A receptor; anion channel (Rattus norvegicus) (UniProt O09028+P15431+P18506+P18508+P19969+P20236+P23574+P23576+P28471+P28473+P30191+P62813+P63079+P63138+Q91ZM7+Q9ES14). Briefly: Inhibition of [3H]GABA binding to Gamma-aminobutyric acid (GABA-A) receptor isolated from rat brain homogenates at 5*10e-4 M.
The nature of series [2]: Half-life period was determined at 20 degree Celsius at UV lambdamax nm of 313 (23000); Stable. In kind it is ADME.
The nature of series [3]: Half-life period was determined at 20 degree Celsius at UV lambdamax nm of 348 (44000); Stable. In kind it is ADME.
The nature of series [4]: Half-life period was determined at 20 degree Celsius at UV lambdamax nm of 258 (9800); Stable. In kind it is ADME.
Series [5] is described as follows: Half-life period was determined at 20 degree Celsius at UV lambdamax nm of 258 (8500). In kind it is ADME.
Series [6] has as its target T1, GABA-A receptor; anion channel (Rattus norvegicus). Put plainly: Inhibition of [3H]-GABA binding to Gamma-aminobutyric acid (GABA-A) receptor of rat brain homogenates at 10e-5 M.
Series [7] in a line: Half-life period was determined at 20 degree Celsius at UV lambdamax nm of 310 (16600). In kind it is ADME.
Series [8] deals with Gamma-aminobutyric acid receptor subunit gamma-1 (Rattus norvegicus, UniProt P23574). Put plainly: Inhibition of [3H]-GABA binding to Gamma-aminobutyric acid (GABA-A) receptor of rat brain homogenates (Unstable).
Series [9] can be described thus: Half-life period was determined at 20 degree Centigrade at UV lambdamax nm of 299 (8000). In kind it is ADME.
The nature of series [10]: Half-life period was determined at 20 degree Centigrade at UV lambdamax nm of 313 (12000). In kind it is ADME.
Series [11] in a line: Half-life period was determined at 20 degree Centigrade at UV lambdamax nm of 306 (24000). In kind it is ADME.
Series [12] can be described thus: Half-life period was determined at 20 degree Celsius at UV lambdamax nm of 313 (22000). In kind it is ADME.
Series [13] in a line: Half-life period was determined at 20 degree Celsius at UV lambdamax nm of 314 (24000); stable. In kind it is ADME.
Series [14] addresses GABA-A receptor; anion channel. Briefly: Inhibition of [3H]GABA binding to Gamma-aminobutyric acid (GABA-A) receptor of rat brain homogenates.
A short description of series [15]: Half-life period was determined at 20 degree Celsius at UV lambdamax nm of 257 (14000), 350 (7900)stable. In kind it is ADME.
Series [16] can be described thus: Half-life period was determined at 20 degree Celsius at UV lambdamax nm of 256 (16000), 349 (9000). In kind it is ADME.
In series [17] the test system is GABA-A receptor; anion channel. Briefly: Inhibition of [3H]GABA binding to Gamma-aminobutyric acid (GABA-A) receptor of rat brain homogenates (unstable).
The nature of series [18]: Half-life period was determined at 20 degree Celsius at UV lambdamax nm of 345 (23000); Stable. In kind it is ADME.
Series [19] can be described thus: Half-life period was determined at 20 degree Celsius at UV lambdamax nm of 304(7800); unstable. In kind it is ADME.
The nature of series [20]: Half-life period was determined at 20 degree Celsius at UV lambdamax nm of 266 (16000); Stable. In kind it is ADME.
Series [21] deals with Gamma-aminobutyric acid receptor subunit gamma-1 (Rattus norvegicus) (UniProt P23574). Briefly: Inhibition of [3H]GABA binding to Gamma-aminobutyric acid (GABA-A) receptor of rat brain homogenates at 5*10e-4 M.
Series [22] is described as follows: Half-life period was determined at 20 degree Celsius at UV lambdamax nm of 268 (16000). In kind it is ADME.
Series [23] is described as follows: Half-life period was determined at 20 degree Celsius at UV lambdamax nm of 306 (24000); Stable. In kind it is ADME.
Series [24] can be described thus: Half-life period was determined at 20 degree Celsius at UV lambdamax nm of 346 (44000); Stable. In kind it is ADME.
Series [25] is described as follows: Half-life period was determined at 20 degree Celsius at UV lambdamax nm of 323 (23000); Stable. In kind it is ADME.
The nature of series [26]: Half-life period was determined at 20 degree Celsius at UV lambdamax nm of 319 (22000). In kind it is ADME.
Series [27] is described as follows: Half-life period was determined at 20 degree Celsius at UV lambdamax nm of 316 (22000). In kind it is ADME.
The nature of series [28]: Half-life period was determined at 20 degree Celsius at UV lambdamax nm of 254 (15000), 341 (7800). In kind it is ADME.
Series [29] in a line: Half-life period was determined at 20 degree Celsius at UV lambdamax nm of 255 (14000), 339 (7500). In kind it is ADME.
The nature of series [30]: Half-life period was determined at 20 degree Celsius at UV lambdamax nm of 328 (12000). In kind it is ADME.
A short description of series [31]: Half-life period was determined at 20 degree Celsius at UV lambdamax nm of 321 (6500). In kind it is ADME.
The nature of series [32]: Half-life period was determined at 20 degree Centigrade at UV lambdamax nm of 328 (9000). In kind it is ADME.
Series [33] is described as follows: Half-life period was determined at 20 degree Centigrade at UV lambdamax nm of 328; Unstable. In kind it is ADME.
A short description of series [34]: Half-life period was determined at 20 degree Celsius at UV lambdamax nm of 260 (9600), 350 (5000); Stable. In kind it is ADME.
Series [35] is described as follows: Half-life period was determined at 20 degree Celsius at UV lambdamax nm of 390 (5900); Stable. In kind it is ADME.

Where only a bound is given, the exact number is not on record here.

Gamma-aminobutyric acid receptor subunit gamma-1 (Rattus norvegicus), sequence (P23574 whole entry): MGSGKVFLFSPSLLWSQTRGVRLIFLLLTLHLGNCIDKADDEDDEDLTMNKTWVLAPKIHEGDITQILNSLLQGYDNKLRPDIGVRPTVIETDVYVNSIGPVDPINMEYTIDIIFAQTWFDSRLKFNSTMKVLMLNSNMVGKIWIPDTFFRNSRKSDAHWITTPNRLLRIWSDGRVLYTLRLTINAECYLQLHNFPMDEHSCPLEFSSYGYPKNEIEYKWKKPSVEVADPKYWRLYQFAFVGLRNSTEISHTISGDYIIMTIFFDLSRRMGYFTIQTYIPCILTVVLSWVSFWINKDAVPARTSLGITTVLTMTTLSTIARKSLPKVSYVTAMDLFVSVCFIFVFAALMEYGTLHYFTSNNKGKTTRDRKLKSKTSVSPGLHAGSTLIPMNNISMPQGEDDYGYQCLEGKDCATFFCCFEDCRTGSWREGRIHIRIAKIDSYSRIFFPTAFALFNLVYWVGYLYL
Gamma-aminobutyric acid receptor subunit gamma-1, sequence (P23574 whole entry): as above

As for `[N-]=[N+]=C1C=CC(=O)C=C1`, the inhibition (commonly the drop in the measured response relative to a control, in per cent) in series [1] turned out to be 15%. Moreover, the T1/2 entry in series [2] and in series [3] was “Stable” throughout.
On to `Nc1nccn1CC(=O)O`, for which the inhibition in series [1] was found to be 20%.
As for `N#[N+]c1cccc(C(=O)[O-])c1`, the T1/2 entry in series [4] is “Stable”. Besides, in series [5], the half-life (usually how long it takes for the measured level to halve) amounted to 1.33 h. In series [1], this compound registered an inhibition of 30%.
In turn, `Nc1nc(CC(=O)O)cs1` displayed an inhibition in series [6] of 25%.
`N#[N+]c1nccn1CC(=O)[O-]`: the half-life was 12 h in series [7], 3 h in series [9] and 0.367 h in [10]. Further, the IC50 – broadly, the concentration that inhibits the measured activity by half – in series [8] is recorded as “Unstable”.
With `Nc1ncc[nH]1`, in [1], the inhibition was determined as 0%.
In the case of `N#[N+]C1N=CC[N-]1` (stereo not given), the half-life in [11] was 48 h; in series [12], 8 h. Further, the T1/2 entry in series [13] is listed as “Stable”. This compound yielded an IC50 in series [14] of 500 µM.
With `N#[N+]c1ccc2cccc(S(=O)(=O)[O-])c2c1`, the T1/2 result in [15] was “Stable”. In addition, in series [16], the half-life was 0.75 h. Moreover, in series [14], the IC50 was below 10 µM.
For the compound `Nc1nc(CC(N)C(=O)O)c[nH]1` (stereo not given), in series [1], the inhibition was below 50%.
Take `N#[N+]c1cc[n+]([O-])cc1`: the IC50 entry in series [17] is reported as “Unstable”. The T1/2 result in series [18] is given as “Stable”; in series [19], “Unstable”.
As to `N#[N+]c1cccc(S(=O)(=O)[O-])c1`, the IC50 in series [14] came out at 5 µM.
In the case of `Nc1nc(CC(=O)O)c[nH]1`, the inhibition in series [6] was determined as 30%.
As for `N#[N+]c1ccc(S(=O)(=O)[O-])cc1`, the T1/2 result in [20] was “Stable”. In series [21], this compound registered an inhibition below 50%. Moreover, the half-life in series [22] is 6 h.
For `[N-]=[N+]=C1C=CC(=O)C(S(=O)(=O)O)=C1`, in series [1], the inhibition is 15%. In addition, the T1/2 result in [23] and in [24] was “Stable” each time.
As to `N#[N+]c1nc(CC(=O)[O-])c[nH]1`, the T1/2 result in [25] is “Stable”. The half-life is 11 h in series [26] and 60 h in series [27]. The IC50 in series [14] was 70 µM.
On to `NCc1ccc[n+]([O-])c1`, for which the inhibition in [1] is 20%.
On to `N#[N+]c1cccc2cccc(S(=O)(=O)[O-])c12`, for which the half-life in series [28] was 22 h; in [29], 16 h. Further, in series [14], the IC50 is 10 µM.
`N#[N+]c1nc(CC(=O)[O-])cs1`: the IC50 entry in series [17] is recorded as “Unstable”. Moreover, the figures for the half-life in [30], in series [31] and in [32] were 48 h, 43 h and 0.417 h, respectively.
On to `Nc1ncc(CC(=O)O)s1`, for which, in [21], the inhibition is below 50%.
As to `N#[N+]c1ncc(CC(=O)[O-])s1`, in [17], the IC50 entry is given as “Unstable”. Moreover, the T1/2 entry in [33] is “Unstable”.
Turning to `[N-]=[N+]=C1C=C(S(=O)(=O)O)C=CC1=O`, the inhibition in series [1] was found to be 15%. In addition, the T1/2 result in series [34] and in [35] was “Stable” each time.
